These results are taken from ChEMBL document CHEMBL1157539, “Thousands of chemical starting points for antimalarial lead identification” (Nature, 2010).

The test system of this assay is Plasmodium falciparum. Briefly: GSK_TCMDC: Inhibition of Plasmodium falciparum 3D7 in whole erythrocytes, using parasite LDH activity as an index of growth. Type of assay: functional, organism-based. The conditions noted are these: Plasmodium falciparum, 3D7.
`CN(C)CCOc1ccc2c(=O)cc(CCc3cccc(F)c3F)n(CC(=O)N(C)Cc3ccc(-c4ccc(C(F)(F)F)cc4)cc3)c2c1` displayed an XC50 of 1200 nM.

As for `O=C(/C=C/c1ccc(Cl)c(Cl)c1)NCCCCCN1CCCN(C(=O)Nc2ccc(Cl)c(C(F)(F)F)c2)CC1`, the XC50 was 730 nM. The value for `N=C(N)c1ccc(-c2cc(-c3cccc(C(=N)N)c3)on2)cc1` was 13.8 nM; that for `CCCCCCCCc1c(C)[nH]c(C)c(Cl)c1=O` was 229 nM. In turn, `Cc1cccc2nc(-c3cccc(-c4cccc(CNCc5cccc(N)c5)c4)c3)[nH]c12` came in with an XC50 of 543 nM. The value for `CCCOc1cc(O)c(-c2[nH]nc(C)c2Oc2ccccc2)cc1CC` was 1070 nM; that for `CN(C)c1ccc(-c2ccc(C(=O)NC3CCN(Cc4ccc(F)cc4)CC3)s2)cc1` was 1050 nM; that for `O=S(=O)(Nc1ccc(CCN2CCC(N3CCCCC3)CC2)cc1)c1ccccc1C(F)(F)F` was 1020 nM.

As for `Cc1cc(N2CCCC2)nc(Nc2ccc(NC(=O)c3ccc4c(c3)OCO4)cc2)n1`, the XC50 came to 815 nM. The value for `CC1CN(Cc2csc(Nc3ccccc3)n2)CC(C)O1` (configuration not stated) was 1020 nM; that for `CCOc1c(C)cc(C(F)(F)F)cc1CNCCCNc1cc(=O)c2ccccc2[nH]1` was 161 nM.

For the molecule `COc1ccc2nccc([C@@H](O)CN3CCC(NCc4cc5oc(=O)[nH]c5cc4F)CC3)c2c1`, the XC50 was found to be 774 nM. Consider `O=C(Nc1ccnc(N2CC3CC2CN3Cc2cccc(O)c2)c1)c1ccc(F)cc1` (configuration not stated), for which the XC50 worked out at 1240 nM. `c1ccc(-n2cncn2)cc1` had an XC50 of 591 nM.

Consider `COc1ccccc1N1CCN(CCCCNC(=O)c2ccc(NC(=O)c3ccc4ccccc4c3)cc2)CC1`, for which the XC50 turned out to be 800 nM.

In turn, `Cc1nc2nc(N)nc(N)c2c(C)c1Cc1ccc(C(N)=O)cc1` gave an XC50 of 530 nM.

As for `CCc1cc2c(Sc3nc4ccccc4[nH]3)ncnc2s1`, the XC50 turned out to be 823 nM. The value for `N#Cc1ccc2[nH]c(-c3ccccc3)nc2c1` was 698 nM. Take `CCOc1cccc(C2c3c(oc4ccccc4c3=O)C(=O)N2CCN(CC)CC)c1` (configuration not stated): the XC50 was 746 nM. `COc1ccc(NC(=O)[C@H](Cc2ccccc2)Nc2cc(C)nc(NCCc3ccccn3)n2)cc1` returned an XC50 of 834 nM.

Molecule `CCn1c(-c2nonc2N)nc2c(-c3cccc(NC(=O)Nc4cccc(C#N)c4)c3)ncc(OCCCN)c21` returned an XC50 of 669 nM. As to `Cc1[nH]c(C)c(-c2ccc(-c3cc(C(F)(F)F)cc(C(F)(F)F)c3)nc2)c(=O)c1Br`, the XC50 came out at 81.4 nM.

`Cc1cccc2nc(-c3cccc(-c4cccc(NC(=O)c5cnn6cccnc56)c4)c3)[nH]c12` showed an XC50 of 671 nM.

Regarding `Cc1ccc(Nc2ccnc3cc(-c4nccs4)ccc23)cc1C(O)c1ccccc1` (configuration not stated), the XC50 amounted to 735 nM. On to `CC(C)NCc1ccc(OCc2cccc(COc3ccc(CNC(C)C)cc3I)c2)c(I)c1`, for which the XC50 stood at 92 nM. The value for `CN(C)CCOc1ccc(-c2cc(-c3ccnc(N)n3)c(-c3ccc(Cl)c(O)c3)o2)cc1` was 978 nM; that for `CC[C@H]1CN2CC[C@H]1C[C@@H]2[C@@H](O)c1ccnc2ccc(OC)cc12` was 119 nM. In turn, `CC1CN(Cc2cccc(C#N)c2)CCN1c1ccc(NC(=O)c2cccs2)cc1` (configuration not stated) came in with an XC50 of 675 nM. The value for `COc1ccc(CN(C)CCCSc2ccc(NC(=O)c3cccc4c(=O)cc(-c5ccccc5)[nH]c34)cc2)cc1OC` was 920 nM; that for `COc1ccc(-c2cccc(NC(=O)c3cccc(Cl)c3)c2)cc1CN1CCC(O)CC1` was 791 nM; that for `Cc1cccc2nc(-c3ccc(-c4ccc(CN5CCN(c6ccc(C#N)cn6)CC5)cc4)s3)[nH]c12` was 1130 nM. The molecule `CN1CCC(NCc2ccc(-c3ccc(S(=O)(=O)NCc4ccccc4)s3)cc2)CC1` gave an XC50 of 765 nM. The value for `COc1ccc(-c2ccc3c(-c4cccc(S(C)(=O)=O)c4)cnc(N)c3c2)cc1` was 1330 nM. The value for `CN(C)C(CNC(=O)c1cc(-c2ccncc2)c(-c2ccc(NC(=O)Nc3ccccc3)cc2)o1)c1ccccc1` (configuration not stated) was 603 nM.

`COc1cccc(Cc2c(C)nc3nc(N)nc(N)c3c2C)c1`: the XC50 worked out at 879 nM. The value for `Cc1cc(-c2ccc(NC(=O)N3CCc4cc(Cl)c(N5CCN(C)CC5)cc43)cc2)ccc1C#N` was 589 nM. The value for `CC(C)c1nc(N2CCN(C(=S)NCc3ccccc3)CC2)c(C#N)c2c1COC(C)(C)C2` was 142 nM; that for `Cc1cc(NCCC(=O)NCCc2ccccc2)nc(NCCc2ccc(F)cc2)n1` was 1080 nM. `C#Cc1cccc(NC(=O)[C@H](CC2CCCCC2)Nc2ccc(C#N)c3ccccc23)c1` had an XC50 of 588 nM. The value for `CCCc1cc(Cc2cnc(N)nc2N)ccc1OCCCCCC(=O)O` was 577 nM. The value for `CN1CCN(Cc2ccc(-c3ccc4c(Nc5ccc(Cl)cc5F)ccnc4c3)o2)CC1` was 155 nM; that for `CN(C)C(=S)N/N=C1/C(=O)Nc2ccccc21` was 1050 nM; that for `CCOc1ccccc1N1CCN(CCCNC(=O)/C(=C/C=C/c2cc3cc(Cl)c(Cl)cc3[nH]2)OC)CC1` was 851 nM.

`CN(C)CCOc1ccc(-n2c(-c3nonc3N)nc3cncc(-c4ccc(F)cc4)c32)cc1` had an XC50 of 866 nM.

`COCCNC(=O)c1ccc(OC2CCN(CC(C)=Cc3ccccc3)CC2)c(Cl)c1` gave an XC50 of 652 nM. As to `C[C@@H](CC1CCCCC1)OC(=O)N(C)[C@@H]1CCN(C#N)C1`, the XC50 turned out to be 621 nM. `COCCNCc1ncsc1-c1ccc2c(Nc3cc(O)ccc3C)ccnc2c1` showed an XC50 of 705 nM. The value for `NC1CCCN(Cc2ccc(-c3cccc(-c4nc5cc(F)ccc5[nH]4)c3)cc2)C1` (configuration not stated) was 640 nM; that for `O=C(Nc1cccc(C(F)(F)F)c1)Nc1nc2ccc([N+](=O)[O-])cc2s1` was 687 nM; that for `O=C(NC1CCCCC1)N(Cc1ccc(-c2ccc(CNCc3ccc4c(c3)OCO4)cc2)cc1)C1CCN(Cc2ccccc2)CC1` was 690 nM. The value for `Cn1nccc1C(=O)NCCNCc1ccc(-c2ccc(-c3nc4cc(F)ccc4[nH]3)cc2)cc1` was 297 nM; that for `CCCCOc1ccc(CNCCCCCCNCc2ccc(OCCCC)c3ccccc23)c2ccccc12` was 1130 nM; that for `Cc1ccc(C(=O)Nc2cccc([N+](=O)[O-])c2)cc1S(=O)(=O)N1CC(C)CC(C)C1` (configuration not stated) was 794 nM. The value for `COc1cc(OC)cc(-c2nn(-c3ccc([N+](=O)[O-])cc3Cl)c(=S)n2CC2CCCO2)c1` (configuration not stated) was 961 nM; that for `CCC[C@@H]([C@@H](CC1CCCCC1)C(=O)N[C@@H](CCOC(=O)NCC)C(=O)Nc1nccs1)N(O)C=O` was 81.8 nM; that for `Cc1c(S(=O)(=O)Nc2ccc3nccc(N4CC(C)NC(C)C4)c3c2)sc2ccc(Cl)cc12` (configuration not stated) was 1020 nM. With `COc1ccc(-c2cccc(NC(=O)c3ccc(Cl)cc3)c2)cc1CN1CCCC1`, the XC50 was 778 nM. The value for `CC(C)(C)c1ccccc1OCCCON1C(=N)N=C(N)NC1(C)C` was 3.2 nM. The value for `N=C1NC(=N)N(OCCCCCCON2C(=N)NC(=N)NC2C=Cc2ccccc2)C(C=Cc2ccccc2)N1` (configuration not stated) was 615 nM; that for `CC(C)Cc1cn(-c2nc(-c3nc4ccccc4[nH]3)cs2)c2cc(Cl)ccc12` was 483 nM. The value for `O=C(Nc1cccc([N+](=O)[O-])c1)N(Cc1ccc(Cl)c(Cl)c1)C1CCNCC1` was 719 nM; that for `NC(=O)c1ccc(NCC(=O)Nc2cccc(-c3cccc(-c4nc5cc(F)ccc5[nH]4)c3)c2)cc1` was 867 nM.
